According to patent publication US8142782B2, “EGFR inhibitors promote axon regeneration” (Children's Medical Center Corporation, priority 2005, dated 2012):

How the values were obtained:
CNS neurons = CNS neurons overexpressing SOCS2; cited from earlier work
[1] = tested on: dorsal root ganglion (DRG) neurons; assay: Neurite outgrowth assay of DRG neurons on myelin inhibitor substrates; type: cell-based
PC12 cells = conditions: cultured PC12 cells; cited from earlier work
CGNs = assay: Neurite outgrowth assay of P7-9 CGNs on control and myelin inhibitor substrates; type: cell-based; conditions: AG1288 1 μM, AG1478 10 nM, PD168393 10 nM; 20 hr; about 500 neurons per condition
Protocol: (§1) To confirm the involvement of EGFR kinase in myelin inhibition, we tested two well-characterized EGFR inhibitors with distinctive mechanisms of action, AG1478 and PD168393, and a non-receptor tyrosine kinase inhibitor, AG1288, in the outgrowth assay. P7-9 CGNs were plated on control and immobilized myclin substrate and grown in the presence of AG1288 (1 μM), AG1478 (10 nM) and PD168393 (10 nM) for 20 hr (8, 10). Cells were fixed in paraformaldehyde and stained with anti-tubulin antibody (Tuj1, Covance) to visualize and quantitate neurite length. […] Approximately 500 neurons were counted for each condition from at least 3 independent experiments. All AG1478 and PD168393 treatments on inhibitors were significant. In contrast, none of the treatments affected either the neurite outgrowth on a control poly-D-lysine (PDL) substrate or neuronal survival. Similarly, EGFR kinase inhibitors were able to block myelin neurite outgrowth inhibition in retinal explant cultures grown within a collagen matrix laden with myelin. P5-6 mouse retinas were dissected and cut into small explants on a tissue chopper. The resultant explants were cultured within a collagen matrix with and without myelin (10 μg/ml) in the presence or absence of PD168393 (10 nM) for 72 hrs. Explants were fixed and stained with anti-tubulin antibodies.

[2] = tested on: PC12 cell lines with reduced EGFR signaling; conditions: cited from earlier work
EGFR = EGFR phosphorylation in serum-starved CGNs (immunoblot of neuronal lysates); type: cell-based; conditions: for effect on EGFR phosphorylation subsequent to Nogo-66 treatment: CGNs, Nogo-66-elicited trans-activation; for effect on direct EGFR activation by EGF: EGF stimulation; for induction of EGFR phosphorylation: serum-starved CGNs, Nogo-66 and OMgp at 5 nM
Excerpt: To examine whether myelin inhibitors directly influence the activity of EGFR in myelin-responsive neurons, we treated serum-starved CGNs with recombinant soluble myelin inhibitors and assessed the EGFR receptor activity.
Previously, we developed a truncated form of NgR that has the ability to bind to ligands but not its signaling co-receptors (8-10, 12). When over-expressed, the truncated receptor can compete with endogenous NgR for coreceptor binding and thus block inhibitor-induced signaling pathways (8-10, 12). […] It is known that in addition to activation by its cognate ligands, EGFR phosphorylation can also result from “trans-activation” by other signaling pathways (22, 23). For example, angiotensin II acts through the angiotensin AT1 receptor, to promote growth of cardiomyocytes via trans-activation of the EGFR and activation of MAP kinase (23). […] We examined whether any of these mechanism(s) are involved in the NgR-dependent EGFR trans-activation by inhibiting specific signaling pathways pharmacologically. […]

[3] = tested on: neurons of the crushed right internal parietal (RIP) nerve; conditions: pond snail Lymnaea stagnalis; cited from earlier work
[4] = tested on: P5-6 mouse retinal explants; assay: Retinal explant outgrowth in collagen matrix laden with myelin; type: cell-based; conditions: myelin 10 μg/ml in collagen matrix; PD168393 10 nM; 72 hrs; Student's t test P<0.0001
Protocol: as §1

[5] = tested on: lesioned optic nerve fibers; type: in vivo
Excerpt: The finding that inhibiting neuronal EGFR activity could efficiently block the inhibitory activity of both myelin inhibitors and CSPGs prompted us to examine whether EGFR inhibitors introduced at a CNS lesion site could promote axon regeneration in a model of optic nerve crushing (28). All animal experiments were done in accordance with protocols approved by the institutional animal care and use committee at Schepens Eye Research Institute. Adult mouse optic nerves were exposed behind the eyeball and crushed. Immediately after injury in adult mice, Gelfoam soaked in a solution containing the EGFR inhibitor PD168393 or 0.1% DMSO (control) was placed against the crush site of the nerve and replaced every three days for the first six days of the study. Animals were sacrificed two weeks post injury followed by transcardial perfusion with 4% paraformaldehyde. Optic nerves were cryosectioned at 10 μm and stained with an anti-GAP43 antibody (Chemicon) to detect regenerating axons (28). Little regeneration was detected in DMSO-treated control mice. […] To test the possibility that the observed axon regrowth of retinal ganglion neurons (RGCs) after PD168393 treatment was a consequence of improved cell survival, we stained retinal sections with the anti-tubulin Tuj1 antibody, which stains RGCs in the retina, and counted surviving RGCs. […]

Retinal explants = assay: Retinal explant neurite outgrowth in collagen gels with CSPGs; type: cell-based; conditions: CSPGs 200 ng/ml in collagen gels; PD168393 100 nM; three days
Protocol: In addition to myelin inhibitors, chondroitin sulfate proteoglycans (CSPGs) in the glial scar represent a major hurdle for regenerating axons. […] Retinal explants were grown in collagen gels with and without CPSGs (200 ng/ml, Chemicon) and PD168393 (100 nM) for three days, fixed and stained with anti-tubulin antibodies. […] In contrast, neither growth cone collapse nor repulsive responses induced by Sema3A were affected by EGFR inhibitors.

[6] = tested on: cerebellar granule cells (CGNs) on immobilized myelin substrate; assay: Screen of about 400 small molecules in a neurite outgrowth assay of CGNs on immobilized myelin; type: cell-based; conditions: 5×10^4 CGNs per well on immobilized myelin, grown overnight; 10-fold dilutions centered on IC50; scored by two blind observers
Protocol: We screened approximately 400 well-characterized small molecules in a neurite outgrowth assay of cerebellar granule cells (CGNs) on immobilized myelin substrate. Myelin was immobilized on 96-well plates using published methods (8). Individual compounds from a signaling molecule targeted drug library (TOCRIS) were diluted by 10-fold dilutions centered on their IC50 values, in concentrations typically varying from low nanomolar to micromolar, and transferred to culture wells with 5×10^4 CGNs per well. Cells were grown overnight, fixed in paraformaldehyde, and stained with tubulin antibodies. Outgrowth was independently scored by two blind observers. Positively scored compounds were picked for further verifications. Each compound was evaluated at a 10^4 dilution range centered on its IC50 value to ensure effective concentrations for each drug tested. Several internal controls, including cAMP analogues, phosphodiesterase inhibitors, and a Rho-associated protein kinase inhibitor were identified in the screen, confirming previous findings and validating our approach.

N#C/C(=C\c1ccc(O)c(O)c1)C(=O)NCc1ccccc1 [AG490]
effect on neurite outgrowth promoted by SOCS2 overexpression (CNS neurons): outgrowth is blocked

COc1cc2ncnc(Nc3cccc(Cl)c3)c2cc1OC [AG1478]
promotion of neurite outgrowth from DRG neurons on whole myelin and individual myelin inhibitors (Nogo-66, MAG) [1]: effectively promoted neurite outgrowth | effect on versican V1-induced neuronal differentiation (PC12 cells): significantly blocks differentiation | promotion of neurite outgrowth from CGNs on whole myelin and individual myelin inhibitors (Nogo-66, MAG) (CGNs): effectively promoted neurite outgrowth | cytotoxicity [2]: cytotoxic

CC(=O)OCOC(=O)CN(CC(=O)OCOC(C)=O)c1ccccc1OCCOc1ccccc1N(CC(=O)OCOC(C)=O)CC(=O)OCOC(C)=O [BAPTA-AM]
effect on EGFR phosphorylation subsequent to Nogo-66 treatment (EGFR): significantly decreased EGFR phosphorylation | effect on direct EGFR activation by EGF (EGFR): neither EGTA nor BAPTA-AM had any effect

O=C(O)CN(CCOCCOCCN(CC(=O)O)CC(=O)O)CC(=O)O [EGTA]
effect on EGFR phosphorylation subsequent to Nogo-66 treatment (EGFR): significantly decreased EGFR phosphorylation | effect on direct EGFR activation by EGF (EGFR): neither EGTA nor BAPTA-AM had any effect

CNC(=O)[C@H](Cc1c[nH]c2ccccc12)NC(=O)[C@@H](CC(=O)NO)CC(C)C [GM6001]
effect on EGFR phosphorylation subsequent to Nogo-66 treatment (EGFR): had no effect

Cn1c2ccccc2c2c3c(c4c5ccccc5n(CCC#N)c4c21)CNC3=O [Go6976]
effect on EGFR phosphorylation subsequent to Nogo-66 treatment (EGFR): had no effect

COc1cc2ncnc(Nc3cccc(Br)c3)c2cc1OC [PD153035]
effect on EGF-promoted axonal regeneration [3]: counteracts the effect of EGF on axonal regeneration

C=CC(=O)Nc1ccc2ncnc(Nc3cccc(Br)c3)c2c1 [PD168393]
promotion of neurite outgrowth from DRG neurons on whole myelin and individual myelin inhibitors (Nogo-66, MAG) [1]: effectively promoted neurite outgrowth | outgrowth of retinal explants in myelin cultures compared to myelin alone [4]: significantly promoted outgrowth of explants | increase in the number of regenerating axons compared to control mice ([5]; adult mice, measured 0.25 mm beyond the injury site, two weeks post injury, GAP43 staining, DMSO control): 9 fold | effect on RGC survival ([5]; mouse, in vivo): No detectable effect | promotion of neurite outgrowth from CGNs on whole myelin and individual myelin inhibitors (Nogo-66, MAG) (CGNs): effectively promoted neurite outgrowth | neurite length of retinal explants compared to CSPGs alone (Retinal explants): significantly increased neurite length

CC(C)(C)n1nc(-c2ccc(Cl)cc2)c2c(N)ncnc21 [PP2]
effect on EGFR phosphorylation subsequent to Nogo-66 treatment (EGFR): had no effect

Nc1ncnc2c1cnn2-c1ccccc1 [PP3]
effect on neurite outgrowth promoted by SOCS2 overexpression (CNS neurons): outgrowth is blocked

N#C/C(=C\c1ccc(O)c(O)c1)C(N)=O [Tyrphostin A46]
ability to counter the effects of myelin inhibition on neurite outgrowth [6]: showed the greatest ability to counter the effects of myelin inhibition

N#C/C(=C\c1ccc(O)c(O)c1)C(N)=S [Tyrphostin A47]
ability to counter the effects of myelin inhibition on neurite outgrowth [6]: showed the greatest ability to counter the effects of myelin inhibition

C[C@@H](NC(=O)/C(C#N)=C/c1ccc(O)c(O)c1)c1ccccc1 [Tyrphostin B44(−)]
ability to counter the effects of myelin inhibition on neurite outgrowth [6]: showed the greatest ability to counter the effects of myelin inhibition

TAPI
effect on EGFR phosphorylation subsequent to Nogo-66 treatment (EGFR): had no effect

pertussis toxin
effect on EGFR phosphorylation subsequent to Nogo-66 treatment (EGFR): had no effect

B1: OMgp: recombinant soluble myelin inhibitor, oligodendrocyte myelin glycoprotein (protein, UniProt P23515 25-417, looked up)
Oligodendrocyte-myelin …: ICPLQCICTERHRHVDCSGRNLSTLPSGLQENIIHLNLSYNHFTDLHNQLTQYTNLRTLDISNNRLESLPAHLPRSLWNMSAANNNIKLLDKSDTAYQWNLKYLDVSKNMLEKVVLIKNTLRSLEVLNLSSNKLWTVPTNMPSKLHIVDLSNNSLTQILPGTLINLTNLTHLYLHNNKFTFIPDQSFDQLFQLQEITLYNNRWSCDHKQNITYLLKWMMETKAHVIGTPCSTQISSLKEHNMYPTPSGFTSSLFTVSGMQTVDTINSLSVVTQPKVTKIPKQYRTKETTFGATLSKDTTFTSTDKAFVPYPEDTSTETINSHEAAAATLTIHLQDGMVTNTSLTSSTKSSPTPMTLSITSGMPNNFSEMPQQSTTLNLWREETTTNVKTPLPS
induction of EGFR phosphorylation (EGFR): triggered EGFR phosphorylation as early as 1 min post-stimulation

B2: Semaphorin3A: chemorepellant (protein, UniProt Q14563 21-771, looked up)
Semaphorin-3A: NYQNGKNNVPRLKLSYKEMLESNNVITFNGLANSSSYHTFLLDEERSRLYVGAKDHIFSFDLVNIKDFQKIVWPVSYTRRDECKWAGKDILKECANFIKVLKAYNQTHLYACGTGAFHPICTYIEIGHHPEDNIFKLENSHFENGRGKSPYDPKLLTASLLIDGELYSGTAADFMGRDFAIFRTLGHHHPIRTEQHDSRWLNDPKFISAHLISESDNPEDDKVYFFFRENAIDGEHSGKATHARIGQICKNDFGGHRSLVNKWTTFLKARLICSVPGPNGIDTHFDELQDVFLMNFKDPKNPVVYGVFTTSSNIFKGSAVCMYSMSDVRRVFLGPYAHRDGPNYQWVPYQGRVPYPRPGTCPSKTFGGFDSTKDLPDDVITFARSHPAMYNPVFPMNNRPIVIKTDVNYQFTQIVVDRVDAEDGQYDVMFIGTDVGTVLKVVSIPKETWYDLEEVLLEEMTVFREPTAISAMELSTKQQQLYIGSTAGVAQLPLHRCDIYGKACAECCLARDPYCAWDGSACSRYFPTAKRRTRRQDIRNGDPLTHCSDLHHDNHHGHSPEERIIYGVENSSTFLECSPKSQRALVYWQFQRRNEERKEEIRVDDHIIRTDQGLLLRSLQQKDSGNYLCHAVEHGFIQTLLKVTLEVIDTEHLEELLHKDDDGDGSKTKEMSNSMTPSQKVWYRDFMQLINHPNLNTMDEFCEQVWKRDRKQRRQRPGHTPGNSNKWKHLQENKKGRNRRTHEFERAPRSV
induction of EGFR phosphorylation (EGFR): neither a control alkaline phosphatase (AP) protein nor the chemorepellant Semaphorin3A (Sema3A) induced detectable levels
